The koff is a measure of how fast the partners let go of each other. As a reminder, the IC50 is the concentration needed to halve the response being measured. As usually defined, the TGI is the reduction of tumour growth relative to the control group. High values mean a stronger effect on the tumour, low ones a weaker effect on the tumour.

Where two headings read alike, the source gives them in different places.

The target in assay [1] is KIF18a-Microtubule Complex (Homo sapiens (Human), UniProt Q8NI77). In words: Binding kinetics to KIF18a-microtubule complex (global progress curve analysis). A digest of the protocol: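 kon and koff determined by global progress curve analysis, with ADP formation measured by ADP-Glo. Time- and dose-dependent progress curves were globally fitted to a Michaelis-Menten model with one-step slow-binding inhibition.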
Chain of KIF18a-Microtubule Complex (Q8NI77 whole entry, looked up): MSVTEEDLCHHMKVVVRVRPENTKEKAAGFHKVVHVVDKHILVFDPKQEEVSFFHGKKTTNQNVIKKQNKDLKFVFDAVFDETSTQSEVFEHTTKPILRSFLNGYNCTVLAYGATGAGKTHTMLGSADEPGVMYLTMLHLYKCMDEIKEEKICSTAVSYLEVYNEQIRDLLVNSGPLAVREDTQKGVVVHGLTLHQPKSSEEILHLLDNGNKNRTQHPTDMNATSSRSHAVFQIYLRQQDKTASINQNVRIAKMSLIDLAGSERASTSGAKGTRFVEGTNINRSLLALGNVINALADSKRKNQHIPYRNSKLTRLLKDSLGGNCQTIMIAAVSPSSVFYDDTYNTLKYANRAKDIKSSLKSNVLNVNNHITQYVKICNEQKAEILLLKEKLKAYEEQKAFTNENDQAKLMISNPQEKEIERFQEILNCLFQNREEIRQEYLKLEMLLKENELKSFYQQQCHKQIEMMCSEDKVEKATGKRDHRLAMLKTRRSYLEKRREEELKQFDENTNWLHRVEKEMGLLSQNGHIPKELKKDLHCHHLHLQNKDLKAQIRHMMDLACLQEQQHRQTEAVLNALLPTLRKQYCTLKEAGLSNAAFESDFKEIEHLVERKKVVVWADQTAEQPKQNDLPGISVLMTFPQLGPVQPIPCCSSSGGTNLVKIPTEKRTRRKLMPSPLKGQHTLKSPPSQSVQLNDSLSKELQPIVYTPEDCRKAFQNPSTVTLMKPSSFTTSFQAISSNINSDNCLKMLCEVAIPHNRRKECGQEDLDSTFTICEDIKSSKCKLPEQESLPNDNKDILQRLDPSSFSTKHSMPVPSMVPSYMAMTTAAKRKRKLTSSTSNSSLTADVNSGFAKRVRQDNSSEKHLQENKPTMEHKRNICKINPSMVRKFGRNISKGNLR
Chain of KIF18a-Microtubule Complex (Q2XVP4 whole entry partner, looked up): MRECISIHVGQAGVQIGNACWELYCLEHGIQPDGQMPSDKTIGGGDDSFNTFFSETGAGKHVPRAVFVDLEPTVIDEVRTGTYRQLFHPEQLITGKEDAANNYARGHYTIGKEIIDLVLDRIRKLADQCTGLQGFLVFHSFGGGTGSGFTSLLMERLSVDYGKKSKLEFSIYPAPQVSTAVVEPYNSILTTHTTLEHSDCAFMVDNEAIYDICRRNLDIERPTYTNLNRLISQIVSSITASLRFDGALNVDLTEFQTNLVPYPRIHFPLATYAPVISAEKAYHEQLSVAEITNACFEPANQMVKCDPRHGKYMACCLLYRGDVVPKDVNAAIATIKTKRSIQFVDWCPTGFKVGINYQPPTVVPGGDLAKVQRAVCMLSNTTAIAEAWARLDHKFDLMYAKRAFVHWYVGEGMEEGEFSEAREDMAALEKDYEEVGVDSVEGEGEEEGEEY
Chain of KIF18a-Microtubule Complex (P02554 whole entry partner, looked up): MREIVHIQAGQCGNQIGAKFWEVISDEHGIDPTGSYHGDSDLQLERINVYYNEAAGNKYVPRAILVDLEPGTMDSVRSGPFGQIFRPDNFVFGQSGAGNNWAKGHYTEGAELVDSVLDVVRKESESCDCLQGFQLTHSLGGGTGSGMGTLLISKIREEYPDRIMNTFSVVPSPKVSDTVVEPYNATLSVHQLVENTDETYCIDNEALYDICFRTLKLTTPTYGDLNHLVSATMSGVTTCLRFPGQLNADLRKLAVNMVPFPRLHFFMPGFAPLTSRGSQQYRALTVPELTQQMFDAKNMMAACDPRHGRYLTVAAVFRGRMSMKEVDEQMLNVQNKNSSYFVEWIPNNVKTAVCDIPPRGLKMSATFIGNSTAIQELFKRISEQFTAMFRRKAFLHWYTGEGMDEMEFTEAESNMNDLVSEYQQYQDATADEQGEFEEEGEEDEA

For the next assay, the system named is HCC15 cells. In words: Cell viability of KIF18a-sensitive cell lines, HCC15 (Cell Titre-Glo, 7 days). The following applies: HCC15, 168 h; HCC-15 cells, 7 days, Cell Titre-Glo; read-out: HCC-15 IC50. The assay is classed as cell-based. Summed up: (§1)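 Seeding was 24 h before dosing: HCC15 at 600 cells/well in RPMI-1640/10% FBS, OVCAR-3 at 1000 cells/well in RPMI-1640/20% FBS plus insulin, JIMT-1 at 1000 cells/well in DMEM/10% FBS. After serially diluted compound, cells grew 7 days at 37° C. Cell Titre-Glo luminescence was converted to ATP; IC50 came from a four-parameter fit.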

In the next assay the test system is NIH:OVCAR-3 cells. In words: Cell viability of KIF18a-sensitive cell lines, NIH:OVCAR-3 (Cell Titre-Glo, 7 days). The assay is classed as cell-based. Conditions: Homo sapiens, OVCAR-3, 168 h; NIH-OVCAR3 cells, 7 days, Cell Titre-Glo; read-out: NIH-OVCAR3 IC50. Summed up:
as §1

The next assay has as its system JIMT-1 cells. In words: Cell viability of KIF18a-sensitive cell lines, JIMT-1 (Cell Titre-Glo, 7 days). The assay is classed as cell-based. The following applies: Homo sapiens, 168 h; JIMT-1 cells, 7 days, Cell Titre-Glo; read-out: JIMT-1 IC50. Summed up: as §1
Assay [2] deals with OVCAR-3 tumor cells implanted in Balb/C nude mice. In words: In vivo activity, OVCAR-3 tumor xenograft, tumor growth inhibition. Set-up: species or system mouse. Conditions: OVCAR3 model. The procedure: (§2) Assessment of In Vivo Activity
(§3) OVCAR-3 (ATCC) tumor cells were maintained in vitro in RPMI-1640 medium supplemented with 20% fetal bovine serum, 0.01 mg/mL bovine insulin and 1% Anti-Anti at 37° C. in an atmosphere of 5% CO2 in air. HCC15 (DSMZ) tumor cells were maintained in vitro in RPMI 1640 medium supplemented with 10% fetal bovine serum and 1% Anti-Anti at 37° C. in an atmosphere of 5% CO2 in air.
(§4) The tumor cells were sub-cultured twice weekly. The cells growing in an exponential growth phase were harvested and counted for tumor inoculation.
(§5) Tumor cells (10×10^6) in 0.2 mL of PBS mixed with Matrigel (50:50) were inoculated subcutaneously on the right flank of each mouse. When the average tumor volume reached 110-175 mm^3, animals were randomized into groups of 10 and treatment started. OVCAR-3 cells were implanted in Balb/C nude mice, and HCC15 cell were implanted in SCID Beige mice.
(§6) Compounds were dosed once or twice a day (12 h) orally. Tumor Growth Inhibition (TGI) was calculated using the formula: TGI (%)=[1−(TN−T0)/(VN−V0)]×100; TN is the average tumor volume of a treatment group at the indicated timepoint, T0 is the average tumor volume of the treatment group on treatment day 0, VN is the average tumor volume of the vehicle control group at the indicated timepoint, and V0 is the average tumor volume of the vehicle group on treatment day 0. P value was calculated based on tumor size by One-Way ANOVA with GraphPad Prism 9.4.0 compared with the vehicle group, respectively. **** indicates p<0.0001.
(§7) The tumor volume of vehicle- and compound-treated mice as a function of time after start of treatment and the results of treatments with selected compounds on SCID Beige mice or nude mice implanted with HCC15 or OVCAR-3 are shown in FIGS. 1A-1E.

The subject of assay [3] is HCC15 tumor cells implanted in SCID Beige mice. Nature of the assay: In vivo activity, HCC15 tumor xenograft, tumor growth inhibition. Further details: species or system mouse. Conditions: HCC15 model. The procedure:
as §2, §3, §4, §5, §6, §7

Another assay deals with hKIF18A (1-374) (Homo sapiens (Human), UniProt Q8NI77). Nature of the assay: Inhibition of KIF18A microtubule-dependent ATPase activity (ADP-Glo). In general terms: In ADP-Glo the light output rises with the ADP produced.
Chain of hKIF18A (1-374) (Q8NI77 whole entry, looked up): as the sequence (Q8NI77 whole entry, looked up) above
Chain of hKIF18A (1-374) (Q2XVP4 whole entry partner, looked up): as the sequence (Q2XVP4 whole entry partner, looked up) above
Chain of hKIF18A (1-374) (P02554 whole entry partner, looked up): as the sequence (P02554 whole entry partner, looked up) above

Method for hKIF18A (1-374): Biological Assays Inhibition of KIF18A Microtubule-Dependent ATPase Activity:
Test compounds were plated in a 3× dilution scheme in a 384-well plate. Assay buffer: 80 mM PIPES (pH 6.9), 1 mM MgCl2, 75 mM KCl, 1 mM EGTA, 1 mM DTT, 0.01% BSA, 0.005% Tween-20, 1 μM Taxol in H2O. […] After incubation at room temperature for 30 min, 2.5 μL of microtubule mix was added [0.2 mg/mL pre-formed microtubules, 2.0 mM ATP in assay buffer], the plate was centrifuged for 30 s and then incubated at 28° C. for 60 min. 5 μL of Promega® ADP-Glo Max R1 was added, the plate was centrifuged for 30 s, and the mixture incubated for 4 h at room temperature. 10 μL of Promega® ADP-Glo Max R2 was added, the plate centrifuged for 30 s, and incubated for 60 min at room temperature. Luminescence was measured with an Envision plate reader, and % Inhibition was calculated for each well as: ([max−min]−[test−min])/[max−min]. IC50 values were calculated from concentration vs. % Inhibition data via a four-parameter variable slope model.

For `CC(C)(C)NS(=O)(=O)c1cccc(C(=O)N2CC3(CCC4(CC4)CC3)c3cc(NS(C)(=O)=O)ccc32)c1` [Compound 22, N-(tert-butyl)-3-(5″- (methylsulfonamido)dispiro[cyclo-propane-1,1′-cyclohexane-4′,3″-indoline]-1″-carbonyl)benzenesulfonamide], the “kon (on-rate from binding kinetics assay)” value in assay [1] (global progress curve analysis) is 10600 M⁻¹ s⁻¹. In assay [1] (ln(2)/koff), the “disc. t1/2 (dissociation half-life ln(2)/koff)” value was determined as 38 h. Further, the Ki in assay [1] (read-out: KI (determined from binding kinetic assay koff/kon), koff/kon) was determined as 0.55 nM. In addition, the off-rate (koff) in assay [1] (read-out: koff (off-rate from binding kinetics assay)) was 5e-06 s⁻¹. Moreover, the 50% inhibitory concentration (IC50) in the assay with HCC15 cells came out at 11 nM; in the assay on NIH:OVCAR-3 cells it was 9.7 nM; in the assay with JIMT-1 cells it was 7.8 nM; against hKIF18A (1-374) it was 9.4 nM; against hKIF18A (1-374) (KIF18A microtubule-dependent ATPase activity, biochemical assay) it was 11 nM. In addition, the tumour growth inhibition (TGI) in assay [2] (10 mg/kg QD PO) was 24 ± 26%; in assay [2] (30 mg/kg QD PO) it was 72 ± 17%; in assay [2] (60 mg/kg QD PO), 82 ± 10%; in assay [3] (10 mg/kg BID PO), 30 ± 15%; in assay [3] (30 mg/kg BID PO), 72 ± 6%; in assay [3] (60 mg/kg BID PO), 82 ± 9%.

(Values after US12084420B2, “Indoline compounds for inhibiting KIF18A” (Volastra Therapeutics, Inc., priority 2021, dated 2024).)
